From PMC8850458, “The AUTOTAC chemical biology platform for targeted protein degradation via the autophagy-lysosome system” (Nature Communications, 2022) come the findings set out here.

Values joined by “and” are separate entries in the source; they are usually repeats but may differ in a detail not shown here. Equal entries are not always repeated.

The test system of experiment [1] is RFP-GFP-hTauP301L pre-formed inclusion bodies. Put plainly: ICC of mRFP-GFP-hTauP301L inclusion bodies (puncta, GFP/RFP ratio) in HeLa cells. It is filed as cell-based. As to conditions: Fig. S6i, PBA-1105 given with O.A. As for the experimental part:
Cells were cultured on coverslips coated with poly-L-lysine (Sigma) to observe cellular localization of proteins. Using 4% paraformaldehyde in PBS (pH 7.4), the cells were fixed for 15 min at room temperature and washed three times for 5 min with PBS. After fixing, the cells were permeabilized with 0.5% Triton X-100 in PBS solution for 15 min and washed three times with PBS for 5 min. The cells were blocked containing 2% BSA in PBS solution for 1 h at room temperature. Subsequently, the cells were incubated with primary antibody diluted in 2% BSA/PBS solution overnight at 4 °C, followed by washing the cells three times for 10 min with PBS and incubated with Alexa Fluor-conjugated secondary antibody diluted in 2% BSA/PBS for 30 min at room temperature. Using a DAPI-containing mounting medium (Vector Laboratories), the coverslips were mounted on glass slides. Confocal images were taken by laser scanning confocal microscope 510 Meta (Zeiss) and analyzed by Zeiss LSM Image Browser (ver. 4.2.0.121). […] Quantification results are shown as mean ± S.D. or S.E.M. of three independent experiments […]
Supplementary Fig. 6. […]
(0.1 μM, 24 h). (h) ICC in HeLa cells transiently expressing mRFP-GFP-hTauP301L and treated with okadaic acid (15 nM, 24 h) prior to the presence or absence of PBA-1105 (100 nM, […]
24 h). Scale bar, 10 µm. (i) Quantification of h for punctate formation and GFP/RFP ratio (n=3 biologically independent experiments each counting 50 cells and 10 puncta within one image).
Data are presented as mean values ± SD for aggregate formation and as mean values ± SEM […]
for GFP/RFP ratio. […]
(1 µM, 24 h) or negative control. P-values (from a two-sided unpaired t-test): **P < 0.00662 (for tau aggregate formation), **P < 0.00779 (for GFP/RFP ratio). Source data are provided

Experiment [2] concerns the target T1, androgen receptor (AR) (Homo sapiens, UniProt P10275, T878A).
T1 construct: Targeted autophagic degradation of endogenous oncoproteins by AUTOTAC; endogenous in cells; host or cells: LNCaP
T1 sequence (P10275 1-920 T878A): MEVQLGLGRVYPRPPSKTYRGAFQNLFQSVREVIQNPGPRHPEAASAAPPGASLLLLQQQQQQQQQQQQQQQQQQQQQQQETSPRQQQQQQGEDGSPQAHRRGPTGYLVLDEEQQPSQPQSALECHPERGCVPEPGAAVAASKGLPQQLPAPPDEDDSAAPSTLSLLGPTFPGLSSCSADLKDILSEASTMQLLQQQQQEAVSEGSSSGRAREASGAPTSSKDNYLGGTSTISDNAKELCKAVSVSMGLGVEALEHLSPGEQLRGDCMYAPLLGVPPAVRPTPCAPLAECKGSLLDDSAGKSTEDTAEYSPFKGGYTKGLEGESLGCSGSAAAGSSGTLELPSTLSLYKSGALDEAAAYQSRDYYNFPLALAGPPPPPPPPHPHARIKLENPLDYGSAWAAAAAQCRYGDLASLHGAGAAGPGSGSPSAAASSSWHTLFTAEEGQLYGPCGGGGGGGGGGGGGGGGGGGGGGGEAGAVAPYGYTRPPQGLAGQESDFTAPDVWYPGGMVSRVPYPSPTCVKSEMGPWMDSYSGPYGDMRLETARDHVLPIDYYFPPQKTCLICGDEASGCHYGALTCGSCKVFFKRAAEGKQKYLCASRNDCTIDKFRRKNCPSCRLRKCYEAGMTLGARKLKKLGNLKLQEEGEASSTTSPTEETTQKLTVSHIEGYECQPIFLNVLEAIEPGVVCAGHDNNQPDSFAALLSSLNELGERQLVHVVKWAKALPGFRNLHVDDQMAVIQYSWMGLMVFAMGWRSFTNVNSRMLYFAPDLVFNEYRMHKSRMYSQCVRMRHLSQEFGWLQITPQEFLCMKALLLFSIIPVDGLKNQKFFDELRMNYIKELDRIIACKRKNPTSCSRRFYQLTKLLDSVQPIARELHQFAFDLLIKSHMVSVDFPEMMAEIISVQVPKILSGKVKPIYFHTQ
Nature of the experiment: Western blot degradation of AR in LNCaP cells. It is filed as cell-based. As to conditions: for DC50: LNCaP prostate cancer cells; for AR normalized to control, AVG % / AR normalized to GAPDH and to control, percentage: LncaP; for AR normalized to GAPDH and to control, percentage: single experiments, listed as Vinclo.-2204. On the procedure:
Adherent cells were washed with phosphate-buffered saline (PBS) and cell pellets were lysed in SDS-based sample buffer (277.8 mM Tris-HCI, pH 6.8, 4.4% LDS, 44.4% (v/v) glycerol) containing beta-mercaptoethanol. Alternatively, cell pellets or protein supernatants were lysed in 5X Laemmli sample buffer. Whole-cell lysates were separated using SDS-PAGE, and transferred onto polyvinyllidene difluoride membranes at 100 V for 2 h at 4 °C. The membrane was incubated with a blocking solution consisting 4% skim milk in PBS solution for 30 min at room temperature and incubated with primary antibodies overnight, followed by incubation with host-specific HRP-conjugated secondary antibodies (1:10000 dilution). For signal detection, the membrane was developed with a mixture of ECL solution (Thermo Fisher Scientific) using X-ray films. Densitometry of developed bands was measured and analyzed with ImageJ (NIH, Bethesda).

As to `O=C(CCCc1ccccc1)NCCOCCOCCOCCNCc1ccc(OCc2ccccc2)c(OCc2ccccc2)c1` [PBA-1105], in experiment [1] (con 1.00467), the “AVG GFP/RFP ratio per puncta, total AVG” value came to 0.4057. In addition, in experiment [1] (con 100), the “AVG GFP/RFP ratio per puncta, relative % AVG” value was 40.3782%. Besides, the “AVG GFP/RFP ratio per puncta, AVG per experiment” value in experiment [1] (n=1 to n=3) was 0.551 and 0.37 and 0.296. Moreover, in experiment [1] (RFP-GFP-TauP301L, con 4.33333), the “puncta formation of cells with AVG RFP/GFP ratio < 0.5, AVG of cells per 50 cells” value is reported as 30.3333. In addition, the “puncta formation of cells with AVG RFP/GFP ratio < 0.5, percentage AVG” value in experiment [1] (RFP-GFP-TauP301L, con 8.66667) is listed as 60.6667. In addition, the “puncta formation of cells with AVG RFP/GFP ratio < 0.5, cells counted per 50 cells” value in experiment [1] (RFP-GFP-TauP301L, single experiments) was 33 and 37 and 21.
As a reminder, the DC50 is the midpoint of the concentration-degradation curve. A higher DC50 goes with degradation only at high concentration. As for `C=CC(C)(O)C(=O)N(C(=O)NCCOCCOCCNCC(O)COc1ccc(OCCc2ccccc2)c(OCCc2ccccc2)c1)c1cc(Cl)cc(Cl)c1` (centres unmarked) [VinclozolinM2-2204], the 50% degradation concentration (DC50) in experiment [2] is roughly 0.2 µM; in experiment [2] (listed as Vinclozolin-2204), 0.211 µM. For the same compound, the “AR normalized to control, AVG %” value in experiment [2] (10 nM) turned out to be 98.914%; in experiment [2] (50 nM), 121.781%; in experiment [2] (100 nM), 60.0788%; in experiment [2] (0.5 uM), 19.2601%; in experiment [2] (1 uM) it was 23.6569%; in experiment [2] (2.5 uM) it was 22.3824%. The “AR normalized to control, AVG %” value in experiment [2] (10 uM) was 6.006%. Also, the “AR normalized to GAPDH and to control, percentage” value in experiment [2] (10 nM) was 90.6238% and 111.624% and 94.4939%; in experiment [2] (50 nM), 119.329% and 128.663% and 117.351%; in experiment [2] (100 nM), 61.0357% and 62.8026% and 56.3981%; in experiment [2] (0.5 uM), 14.6016% and 23.3958% and 19.7827%; in experiment [2] (10 uM), 9.375% and 3.388% and 5.255%.
